Biological target: T1, MTHFD1 C-1-tetrahydrofolate synthase, cytoplasmic (Homo sapiens, UniProt P11586)
T1 construct: isoTOP-ABPP experiments performed in cell lysates (in vitro); endogenous in cells; host or cells: MDA-MB-231 soluble lysate
T1 sequence (P11586 1-935): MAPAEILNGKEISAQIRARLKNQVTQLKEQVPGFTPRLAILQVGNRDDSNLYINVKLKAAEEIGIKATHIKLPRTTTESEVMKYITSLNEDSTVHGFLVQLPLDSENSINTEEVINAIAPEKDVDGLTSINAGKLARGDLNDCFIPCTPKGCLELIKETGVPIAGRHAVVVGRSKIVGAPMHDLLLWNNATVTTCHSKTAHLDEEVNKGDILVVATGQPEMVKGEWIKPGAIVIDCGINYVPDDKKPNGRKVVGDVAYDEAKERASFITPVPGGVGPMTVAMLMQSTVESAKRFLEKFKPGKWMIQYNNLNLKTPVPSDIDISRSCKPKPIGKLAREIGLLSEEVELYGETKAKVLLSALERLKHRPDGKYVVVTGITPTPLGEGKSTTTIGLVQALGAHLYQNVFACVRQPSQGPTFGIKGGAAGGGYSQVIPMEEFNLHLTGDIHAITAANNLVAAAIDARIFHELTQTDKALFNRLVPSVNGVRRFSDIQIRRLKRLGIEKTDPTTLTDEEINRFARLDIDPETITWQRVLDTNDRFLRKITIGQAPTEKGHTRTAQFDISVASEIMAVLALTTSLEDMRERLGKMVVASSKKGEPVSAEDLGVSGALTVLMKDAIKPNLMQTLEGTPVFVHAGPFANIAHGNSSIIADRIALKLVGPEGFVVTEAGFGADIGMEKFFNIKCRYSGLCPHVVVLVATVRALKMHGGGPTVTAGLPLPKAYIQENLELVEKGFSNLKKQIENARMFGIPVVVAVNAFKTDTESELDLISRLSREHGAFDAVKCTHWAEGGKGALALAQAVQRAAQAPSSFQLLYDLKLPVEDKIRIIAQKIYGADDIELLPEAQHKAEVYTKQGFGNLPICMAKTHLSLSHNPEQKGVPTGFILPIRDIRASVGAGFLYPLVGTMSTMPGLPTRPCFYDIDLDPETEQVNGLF
Test: competitive isoTOP-ABPP
Assay type: binding
Details: for isoTOP-ABPP reactivity ratio at lysine P11586_K760 / isoTOP-ABPP ratio (R) at liganded lysine P11586_K760: 50 uM, in vitro; for isoTOP-ABPP reactivity ratio at lysine P11586_K760: 231 sol; for isoTOP-ABPP ratio (R) at liganded lysine P11586_K760: sol, 231
Outline: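 Fragments at 50 μM (activated esters) or 100 μM (guanidinylating agents) were incubated with 0.5 ml lysate before probe labeling. After 0.1 mM STP-alkyne for 1 h, samples were clicked to isotopically distinct TEV tags, and R taken as DMSO-over-compound MS1 peak-area ratio.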

| Structure (SMILES) | isoTOP-ABPP reactivity ratio at lysine P11586_K760 | isoTOP-ABPP ratio (R) at liganded lysine P11586_K760 | other results |
| --- | --- | --- | --- |
| O=C(Oc1ccc([N+](=O)[O-])cc1[N+](=O)[O-])C(c1ccccc1)c1ccccc1 [fragment 30, 2,4-Dinitrophenyl 2,2-diphenylacetate] | 0.9 |  |  |
| O=C(Oc1ccc([N+](=O)[O-])cc1[N+](=O)[O-])c1cc(C(F)(F)F)cc(C(F)(F)F)c1 [fragment 31, 2,4-Dinitrophenyl 3,5-bis(trifluoromethyl)benzoate] | 0.8 |  |  |
| Cn1cc(CC(=O)Oc2ccc([N+](=O)[O-])cc2[N+](=O)[O-])c2ccccc21 [fragment 32, 2,4-Dinitrophenyl 2-(1-methyl-1H-indol-3-yl)acetate] | 0.6 |  |  |
| O=C(CC12CC3CC(CC(C3)C1)C2)Oc1ccc([N+](=O)[O-])cc1[N+](=O)[O-] [fragment 38, 2,4-Dinitrophenyl 2-(adamantan-1-yl)acetate] |  | 1.3 |  |
| CC(C)(C)OC(=O)NCCCC(=O)Oc1ccc([N+](=O)[O-])cc1[N+](=O)[O-] [fragment 41, 2,4-Dinitrophenyl 4-((tert-butoxycarbonyl)amino)butanoate] |  | 4.2 |  |
| CC(C)(C)OC(=O)N=C(NC(=O)OC(C)(C)C)n1cccn1 [fragment 50, reference compound] |  |  | isoTOP-ABPP ratio, lysine P11586_K760 (100 uM_231_sol_in vitro): 0.6 |

From patent US20210255193A1, “LYSINE REACTIVE PROBES AND USES THEREOF” (The Scripps Research Institute, priority 2017, published 2021)
